Reference: patent publication US20260374754A1, “N-((ISOQUINOLIN-6-YL)METHYL)-1H-PYRAZOLE-4-CARBOXAMIDE DERIVATIVES AS PLASMA KALLIKREIN INHIBITORS FOR THE TREATMENT OF HEREDITARY ANGIODEMA” (Takeda Pharmaceutical Company Limited, priority 2022, published 2026)

target: human activated kallikrein enzyme (Homo sapiens, UniProt P03952); assay: Inhibition of human activated plasma kallikrein, fluorogenic PFR-AMC substrate, 500 pM enzyme format; format: biochemical; settings: 500 pM activated kallikrein; 300 μM PFR-AMC; 30 min preincubation; 10 min room temperature; pH 7.5; read-out: Primary Dose Response Assay: Average EC50
Summary of the method: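 Using fluorogenic PFR-AMC at 300 μM, cleavage by 500 pM human activated kallikrein ran 10 min at room temperature, read at 460 nm emission (380 nm excitation). Enzyme and compounds were first preincubated 30 min in 20 mM Tris pH 7.5, 150 mM NaCl, 1 mM EDTA, 0.1% PEG-400, 0.1% Triton X-100.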

Chain of human activated kallikrein enzyme (P03952 391-638 limits assumed): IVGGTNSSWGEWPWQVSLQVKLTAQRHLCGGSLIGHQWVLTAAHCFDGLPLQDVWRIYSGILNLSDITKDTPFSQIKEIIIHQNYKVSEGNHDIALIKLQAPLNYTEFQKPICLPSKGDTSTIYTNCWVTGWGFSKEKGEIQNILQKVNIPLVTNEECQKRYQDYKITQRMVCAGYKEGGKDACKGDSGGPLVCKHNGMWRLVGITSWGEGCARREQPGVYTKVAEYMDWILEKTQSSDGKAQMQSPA
Chain of human activated kallikrein enzyme (P03952 20-390 partner limits assumed): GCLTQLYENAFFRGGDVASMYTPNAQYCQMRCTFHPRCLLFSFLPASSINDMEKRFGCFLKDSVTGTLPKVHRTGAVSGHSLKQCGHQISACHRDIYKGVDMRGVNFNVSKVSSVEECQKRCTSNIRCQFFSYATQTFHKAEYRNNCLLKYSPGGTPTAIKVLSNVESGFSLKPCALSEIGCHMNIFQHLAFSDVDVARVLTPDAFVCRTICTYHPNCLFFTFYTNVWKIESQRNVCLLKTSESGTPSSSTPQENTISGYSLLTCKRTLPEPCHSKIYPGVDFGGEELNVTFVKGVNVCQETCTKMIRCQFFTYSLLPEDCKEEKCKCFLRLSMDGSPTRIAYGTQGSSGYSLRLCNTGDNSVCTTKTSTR

| Compound | EC50 [nM] |
| --- | --- |
| Cc1cc2c(N)nccc2c(C)c1CNc1cc2c(Cc3ccc4ccccc4c3)cn(C)c2cn1 [Example 524, 5,7-dimethyl-6-(((1-methyl-3-(naphthalen-2-ylmethyl)-1H-pyrrolo[2,3-c]pyridin-5-yl)amino)methyl)isoquinolin-1-amine] | > 1000 |
| Cc1cc2c(N)nccc2c(C)c1CNc1nccn2cc(Cc3ccc4ccccc4c3)nc12 [Example 525, 5,7-dimethyl-6-(((2-(naphthalen-2-ylmethyl)imidazo[1,2-a]pyrazin-8-yl)amino)methyl)isoquinolin-1-amine] | 100 to 1000 |
| Cc1cc2c(N)nccc2c(C)c1CNc1cc2c(Cc3ccc4ccccc4c3)c[nH]c2cn1 [Example 526, 5,7-dimethyl-6-(((3-(naphthalen-2-ylmethyl)-1H-pyrrolo[2,3-c]pyridin-5-yl)amino)methyl)isoquinolin-1-amine] | > 1000 |
| Cc1cc2c(N)nccc2c(C)c1CNc1cnc2[nH]cc(Cc3ccc4ccccc4c3)c2c1 [Example 527, 5,7-dimethyl-6-(((3-(naphthalen-2-ylmethyl)-1H-pyrrolo[2,3-b]pyridin-5-yl)amino)methyl)isoquinolin-1-amine] | > 1000 |
| Cc1cc2c(N)nccc2c(C)c1CNc1cc2c(ccn2Cc2ccc3ncccc3c2)cn1 [Example 528, 5,7-dimethyl-6-(((1-(quinolin-6-ylmethyl)-1H-pyrrolo[3,2-c]pyridin-6-yl)amino)methyl)isoquinolin-1-amine] | > 1000 |
| Cc1cc2c(N)nccc2c(C)c1CNc1cc(C(F)c2cn3cc(C4CC4)ccc3n2)ncn1 (centres unmarked) [Example 529, 6-(((6-((6-cyclopropylimidazo[1,2-a]pyridin-2-yl)fluoromethyl)pyrimidin-4-yl)amino)methyl)-5,7-dimethylisoquinolin-1-amine] | 1 to 10 |
| Cc1cc2c(N)nccc2c(C)c1CNc1cnnc(OCc2ccc(Cn3cccn3)cc2)c1 [Example 530, 6-(((6-((4-((1H-pyrazol-1-yl)methyl)benzyl)oxy)pyridazin-4-yl)amino)methyl)-5,7-dimethylisoquinolin-1-amine] | 10 to 100 |
| Cc1cc2c(N)nccc2c(C)c1CNc1cc2c(ccn2Cc2ccc3ncc(Cl)cc3c2)cn1 [Example 531, 6-(((1-((3-chloroquinolin-6-yl)methyl)-1H-pyrrolo[3,2-c]pyridin-6-yl)amino)methyl)-5,7-dimethylisoquinolin-1-amine] | 10 to 100 |
| Cc1cc2c(N)nccc2cc1CNc1cc(OCc2ccc(Cn3cccn3)cc2)ncn1 [Example 534, 6-(((6-((4-((1H-pyrazol-1-yl)methyl)benzyl)oxy)pyrimidin-4-yl)amino)methyl)-7-methylisoquinolin-1-amine] | 10 to 100 |
| Nc1nccc2cc(CNc3cc(OCc4ccc(Cn5cccn5)cc4)ncn3)c(C(F)(F)F)cc12 [Example 535, 6-(((6-((4-((1H-pyrazol-1-yl)methyl)benzyl)oxy)pyrimidin-4-yl)amino)methyl)-7-(trifluoromethyl)isoquinolin-1-amine] | 100 to 1000 |
| Cc1c(CNc2cc(NCc3ccc(Cn4ccccc4=O)cc3)cnn2)ccc2c(N)nccc12 [Example 536, 1-(4-(((6-(((1-amino-5-methylisoquinolin-6-yl)methyl)amino)pyridazin-4-yl)amino)methyl)benzyl)pyridin-2(1H)-one] | < 1 |
| Cc1cc2c(N)nccc2c(C)c1CNc1cnnc(NCc2ccc(Cn3ccccc3=O)cc2)c1 [Example 537, 1-(4-(((5-(((1-amino-5,7-dimethylisoquinolin-6-yl)methyl)amino)pyridazin-3-yl)amino)methyl)benzyl)pyridin-2(1H)-one] | < 1 |
| Cc1cc2c(N)nccc2c(C)c1CNc1ncnc2oc(Cc3ccc4ncc(Cl)cc4c3)nc12 [Example 538, N-((1-amino-5,7-dimethylisoquinolin-6-yl)methyl)-2-((3-chloroquinolin-6-yl)methyl)oxazolo[5,4-d]pyrimidin-7-amine] | 10 to 100 |
| Cc1cc2c(N)nccc2c(C)c1CNc1ncnc2c1nc(Cc1ccc3ncc(Cl)cc3c1)n2C [Example 539, 6-(((8-((3-chloroquinolin-6-yl)methyl)-9-methyl-9H-purin-6-yl)amino)methyl)-5,7-dimethylisoquinolin-1-amine] | 100 to 1000 |
| Cc1cc2c(N)nccc2c(C)c1CNc1ncnc2[nH]c(Cc3ccc4ccccc4c3)cc12 [Example 540, 5,7-dimethyl-6-(((6-(naphthalen-2-ylmethyl)-7H-pyrrolo[2,3-d]pyrimidin-4-yl)amino)methyl)isoquinolin-1-amine] | 10 to 100 |

The next lines start with the values.

| EC50 [nM] | Compound |
| --- | --- |
| 1 to 10 | Cc1cc2c(N)nccc2c(C)c1CNc1cc(OCc2ccc(Cn3cccn3)cc2)ccn1 [Example I-454, 6-(((4-((4-((1H-pyrazol-1-yl)methyl)benzyl)oxy)pyridin-2-yl)amino)methyl)-5,7-dimethylisoquinolin-1-amine] |
| 1 to 10 | Cc1cc2c(N)nccc2c(C)c1CNc1ccnc(OCc2ccc(Cn3cccn3)cc2)c1 [Example I-455, 6-(((2-((4-((1H-pyrazol-1-yl)methyl)benzyl)oxy)pyridin-4-yl)amino)methyl)-5,7-dimethylisoquinolin-1-amine] |
| 1 to 10 | Cc1cc2c(N)nccc2c(C)c1CNc1cc(OCc2ccc(Cn3ccccc3=O)cc2)c(Cl)cn1 [Example I-456, 1-(4-(((2-(((1-amino-5,7-dimethylisoquinolin-6-yl)methyl)amino)-5-chloropyridin-4-yl)oxy)methyl)benzyl)pyridin-2(1H)-one] |
| 1 to 10 | Cc1cc2c(N)nccc2c(C)c1CNc1cc2c(cn1)cnn2Cc1ccc(Cn2cccn2)cc1 [Example I-458, 6-(((1-(4-((1H-pyrazol-1-yl)methyl)benzyl)-1H-pyrazolo[4,3-c]pyridin-6-yl)amino)methyl)-5,7-dimethylisoquinolin-1-amine] |
| 10 to 100 | Cc1cc2c(N)nccc2c(C)c1CNc1cc2nn(Cc3ccc(Cn4cccn4)cc3)cc2cn1 [Example I-459, 6-(((2-(4-((1H-pyrazol-1-yl)methyl)benzyl)-2H-pyrazolo[4,3-c]pyridin-6-yl)amino)methyl)-5,7-dimethylisoquinolin-1-amine] |
| 10 to 100 | Cc1cc2c(N)nccc2c(C)c1CNc1cc(CCc2ccc(Cn3cccn3)cc2)ncn1 [Example I-460, 6-((6-(4-((1H-pyrazol-1-yl)methyl)phenethyl)pyrimidin-4-ylamino)methyl)-5,7-dimethylisoquinolin-1-amine] |
| 1 to 10 | Cc1cc2c(N)nccc2c(C)c1CNc1cc(NCc2ccc(CO)cc2)ncn1 [Example I-461, (4-(((6-(((1-amino-5,7-dimethylisoquinolin-6-yl)methyl)amino)pyrimidin-4-yl)amino)methyl)phenyl)methanol] |
| > 1000 | Cc1cc2c(N)nccc2c(C)c1CNc1cnnc(OCc2ccc(CC(=O)N(C)C)cc2)c1 [Example I-462, 2-(4-(((5-(((1-amino-5,7-dimethylisoquinolin-6-yl)methyl)amino)pyridazin-3-yl)oxy)methyl)phenyl)-N,N-dimethylacetamide] |
| < 1 | Cc1cc2c(N)nccc2c(C)c1CNc1cc(NCc2ccc(Cn3cc(Cl)cc(Cl)c3=O)cc2)ncn1 [Example I-463, 1-(4-(((6-(((1-amino-5,7-dimethylisoquinolin-6-yl)methyl)amino)pyrimidin-4-yl)amino)methyl)benzyl)-3,5-dichloropyridin-2(1H)-one] |
| < 1 | Cc1cc2c(N)nccc2c(C)c1CNC(=O)c1cnn(Cc2ccc3nc(C)c(C)nc3c2)c1 [Example I-464, N-((1-amino-5,7-dimethylisoquinolin-6-yl)methyl)-1-((2,3-dimethylquinoxalin-6-yl)methyl)-1H-pyrazole-4-carboxamide] |
| < 1 | Cc1cc2c(N)nccc2c(C)c1CNc1cc(OCc2ccc(CC(=O)N(C)C)cc2)cnn1 [Example I-465, 2-(4-(((6-(((1-amino-5,7-dimethylisoquinolin-6-yl)methyl)amino)pyridazin-4-yl)oxy)methyl)phenyl)-N,N-dimethylacetamide] |
| 1 to 10 | Cc1cc2c(N)nccc2c(C)c1CNc1cc(OCc2ccc(CC(=O)N(C)C)cc2)ncn1 [Example I-466, 2-(4-(((6-(((1-amino-5,7-dimethylisoquinolin-6-yl)methyl)amino)pyrimidin-4-yl)oxy)methyl)phenyl)-N,N-dimethylacetamide] |
| > 1000 | Cc1cc2c(Nc3cc(OCc4ccc(CC(=O)N(C)C)cc4)ncn3)nccc2c(C)c1CN [Example I-467, 2-(4-(((6-((6-(aminomethyl)-5,7-dimethylisoquinolin-1-yl)amino)pyrimidin-4-yl)oxy)methyl)phenyl)-N,N-dimethylacetamide] |
| 1 to 10 | Cc1cc2c(N)nccc2c(C)c1CNc1cc(OCc2ccc(Cn3cccn3)cc2)c2c(c1)C(=O)N(C)C2 [Example I-468, 4-((4-((1H-pyrazol-1-yl)methyl)benzyl)oxy)-6-(((1-amino-5,7-dimethylisoquinolin-6-yl)methyl)amino)-2-methylisoindolin-1-one] |
| 100 to 1000 | Cc1cc2c(N)nccc2c(C)c1CNC(=O)c1cnn(C(F)(F)c2ccc(Br)cc2)c1 [Example I-469, N-((1-amino-5,7-dimethylisoquinolin-6-yl)methyl)-1-((4-bromophenyl)difluoromethyl)-1H-pyrazole-4-carboxamide] |
| 10 to 100 | CC(=O)Nc1nccc2c(C)c(CNc3cc(OCc4ccc(Cn5cccn5)cc4)cnn3)c(C)cc12 [Example I-470, N-(6-(((5-((4-((1H-pyrazol-1-yl)methyl)benzyl)oxy)pyridazin-3-yl)amino)methyl)-5,7-dimethylisoquinolin-1-yl)acetamide] |
| 10 to 100 | Cc1cc2c(N)nccc2c(C)c1CNC(c1cnn(Cc2ccc(Cn3ccccc3=O)cc2)c1)C(F)(F)F (centres unmarked) [Example I-471, 1-(4-((4-(1-(((1-amino-5,7-dimethylisoquinolin-6-yl)methyl)amino)-2,2,2-trifluoroethyl)-1H-pyrazol-1-yl)methyl)benzyl)pyridin-2(1H)-one] |
